The inhibition is how much of the control response was suppressed. Lower therefore signals little suppression.

In assay [1] the target is T1, SK2 channel (Rattus norvegicus, UniProt P70604).
T1 construct: expressed in transfected cells
As to the kind of experiment: Automated patch clamp (Nanion NPC-16 Patchliner Quattro) on HEK-rSK2 cells, SK2 channel activity. The class given is cell-based. To be noted: for inhibition at 0.001 µM: 1 nM; for inhibition at 0.01 µM: 10 nM. From the text:
(§1) Cell Lines Used to Screen the Molecules on the Activity of SKCa Channels (Small Conductance Calcium-Activated Potassium Channel; SK1, SK2 and SK3) and IKCa Channels (Intermediate Conductance Calcium-Activated Potassium Channel, SK4)
(§2) Use was made of the HEK 293 T line, a foetal kidney line which was immortalised with the T antigen of the […] simian virus. This cell line is widely used on account of the ease with which these cells can be transfected with plasmids or other transfection vectors. Four stable lines were used for patch clamp experiments: HEK-hSK1, HEK-rSK2, HEK-rSK3 and HEK-IKCa/SK4 which respectively overexpress the SK1, SK2, SK3 and SK4 channels. The lines were obtained via stable transduction (Girault et al., Current Cancer Drug Targets, 2011, 11, 1111-25) and are those already routinely used to assay SK3 modulators (Potier et al. Br J Pharmacol. 2011 January; 162(2):464-79; Sevrain et al., Med. Chem. Commun., 2012, 3, 1471-1478; Sevrain et al., Organic & Biomolecular Chemistry, 2013 Jul. 21; 11(27):4479-87, Berthe W, Sevrain C M, Chantôme A, Bouchet A M, Gueguinou M, Fourbon Y, Potier-Cartereau M, Haelters J P, Couthon-Gourvès H, Vandier C, Jaffrès P A. ChemMedChem. 2016 Jul. 19; 11(14):1531-9). […] These lines therefore enabled us without difficulty to examine the effect of the molecules on the SK3 channel, and also the selectivity thereof by means of the patch clamp technique. The inhibitory activity of the non-toxic molecules was assayed on the activity of the SK3 channel. The selectivity of the molecules was determined by patch clamp on HEK cell models stably expressing the SK3 channel but also the SK1, SK2, SK3 or IKCa/SK4 channels.
(§3) Patch clamp is a technique allowing measurement of the activity of ion channels by recording macroscopic (whole cell configuration) or microscopic (e.g. inside out configuration) ionic currents through the plasma membrane. For assay of the effect of the molecules on the SKCa/IKCa channels, two complementary techniques were used: conventional, manual patch clamp and automated patch clamp with the Nanion NPC-16 Patchliner Quattro (4 channels) (Potier et al., Mol Cancer Ther 2006, 5, 2946-53; Chantome et al., Exp Cell Res 2009, 315, 3620-30; Potier et al., Biochem Biophys Res Commun 2010, 397, 42-7; Girault et al., Current Cancer Drug Targets, 2011, 11, 1111-25; Sevrain et al., Med. Chem. Commun., 2012, 3, 1471-1478; Sevrain et al., Organic & Biomolecular Chemistry, 2013 Jul. 21; 11(27):4479-87; Chantome et al., Cancer Research, 2013 Aug. 1; 73(15):4852-61, Gueguinou M, Crottès D, Chantôme A, Rapetti-Mauss R, Potier-Cartereau M, Clarysse L, Girault A, Fourbon Y, Jézéquel P, Guérin-Charbonnel C, Fromont G, Martin P, Pellissier B, Schiappa R, Chamorey E, Mignen O, Uguen A, Borgese F, Vandier C, Soriani O. Oncogene. 2017 Jan. 23. doi: 10.1038/onc.2016.501, Berthe W, Sevrain C M, Chantôme A, Bouchet A M, Gueguinou M, Fourbon Y, Potier-Cartereau M, Haelters J P, Couthon-Gourvès H, Vandier C, Jaffrès P A. ChemMedChem. 2016 Jul. 19; 11(14):1531-9, Guéguinou M, Harnois T, Crottes D, Uguen A, Deliot N, Gambade A, Chantôme A, Haelters J P, Jaffrès P A, Jourdan M L, Weber G, Soriani O, Bougnoux P, Mignen O, Bourmeyster N, Constantin B, Lecomte T, Vandier C, Potier-Cartereau M. Oncotarget. 2016 Jun. 14; 7(24):36168-36184. doi: 10.18632/oncotarget.8786).
The technique of choice to determine molecules inhibiting the activity of ion channels is the patch-clamp technique. However, this technique which is manual is time-consuming and only gives low yields. Automation of patch-clamp brought a revolution in the study and screening of ion channels and has allowed the envisaging of assays with much faster flow rate and much higher yield. There exist several automatic patch clamp devices based on the use of chips. […]
In general terms: Patch clamp records ionic current or voltage across a cell membrane.

In assay [2] the target is T2, SK3 channel (Rattus norvegicus, UniProt P70605).
T2 construct: expressed in transfected cells
As to the kind of experiment: Conventional manual patch clamp on HEK-rSK3 cells, SK3 channel activity. The class given is cell-based. To be noted: for inhibition at 0.05 µM: 50 nM; for inhibition at 0.5 µM: 500 nM; for inhibition at 0.001 µM: 1 nM.
Excerpt: as §1, §2
Electrophysiology/Patch-Clamp
as §3
For conventional patch clamp, the micropipette is filled with an intrapipette medium—IPM (see composition below) and allows measurement of ionic currents at the same time as allowing maintaining of membrane potential (voltage clamp). The experimental device was composed of an anti-vibration table supporting an inverted microscope (Nikon, Eclipse TE 300). The Petri dish (Corning Incorporated, USA), containing the cells was placed on a plexiglass plate attached to the microscope stage. The pipette was connected to the amplifier (Axopatch 200B) as reference electrode which allowed closing of the electrical circuit. […]

For `Oc1nc(NC2CCCc3ccccc32)c2ncccc2n1` (stereo not shown) [Compound 34, 4-(1,2,3,4-tetrahydronaphthalen-1-ylamino)pyrido[3,2-d]pyrimidin-2-ol], in assay [1] (100 nM), testing at 0.1 µM gave an inhibition of 92.7%. This compound returned an inhibition at 10 µM in assay [1] (10 μM) of 94.8%. Further, in assay [2], at 0.05 µM the inhibition was 32.9% and 0.5 µM produced 40.4% inhibition.
As for `c1ccc2c(c1)CCC[C@H]2Nc1ncnc2cccnc12` [Compound 18, (R)—N-(1,2,3,4-Tetrahydronaphthalen-1-yl)pyrido[3,2-d]pyrimidin-4-amine], the values for the inhibition at 0.001 µM in assay [1] and in assay [2] were 36.7% and 44.7%, respectively. Also, the inhibition at 0.01 µM in assay [1] was found to be 81.4%; in assay [2] (10 nM), 59.7%. The results for the inhibition at 0.1 µM in assay [1] (100 nM) and in assay [2] (100 nM) were 92.9% and 96%, respectively. Moreover, the inhibition at 10 µM in assay [1] (10 μM) came to 97%; in assay [2] (10 μM), 89.9%.
In assay [1] (10 μM), `Cc1nc(NC2CCCc3ccccc32)c2ncccc2n1` (stereo not shown) [Compound 30, 2-Methyl-N-(1,2,3,4-tetrahydronaphthalen-1-yl)pyrido[3,2-d]pyrimidin-4-amine] yielded an inhibition at 10 µM of 95%. In assay [2], this compound came in with an inhibition at 0.05 µM of 35.5% and an inhibition at 0.5 µM of 52.9%. This compound had an inhibition at 10 µM in assay [2] (10 μM) of 87.2%.
For the compound `Cl.c1ccc2c(c1)CCCC2Nc1ncnc2cccnc12` (stereo not shown) [Compound 75, N-Tetralin-1-ylpyrido[3,2-d]pyrimidin-3-ium-4-amine chloride], the inhibition at 0.1 µM in assay [1] (100 nM) worked out at 80%; in assay [2] (100 nM) it was 85.4%. Moreover, the inhibition at 10 µM in assay [1] (10 μM) came out at 93.3%; in assay [2] (10 μM) it was 88.8%. Further, the “% SK3 inhibition” value in assay [2] (10 nM) is 10 nM: 92.43 ± 0.78 (N = 2) %.
For the compound `c1ccc2c(c1)CCCN2Nc1ncnc2cccnc12` [Compound 53, N-(3,4-Dihydroquinolin-1(2H)-yl)pyrido[3,2-d]pyrimidin-4-amine], the inhibition at 0.05 µM in assay [1] (50 nM) and in assay [2] was 29.2% in each case. The inhibition at 0.1 µM in assay [1] (100 nM) and in assay [2] (100 nM) was 41.9% each time. In addition, the inhibition at 0.5 µM in assay [1] (500 nM) turned out to be 43.2%; in assay [2], 94.2%. The inhibition at 10 µM in assay [1] (10 μM) and in assay [2] (10 μM) was 62.2% each time. Also, testing at 0.001 µM in assay [2] gave an inhibition of 7.4%. The inhibition at 0.01 µM in assay [2] (10 nM) came out at 42.6%.
Compound `CNc1nc(NC2CCCc3ccccc32)c2ncccc2n1` (stereo not shown) [Compound 35, N^2-methyl-N^4-(1,2,3,4-tetrahydronaphthalen-1-yl)pyrido[3,2-d]pyrimidine-2,4-diamine] had an inhibition at 0.1 µM in assay [1] (100 nM) of 83.7%. The compound also had an inhibition at 10 µM in assay [1] (10 μM) of 91.4%.
As for `c1cnc2c(NC3CCCCC3)ncnc2c1` [Compound 23, N-Cyclohexylpyrido[3,2-d]pyrimidin-4-amine], the inhibition at 10 µM in assay [1] (10 μM) came out at 1%; in assay [2] (10 μM), 8.4%.
On the same counts, the results for `c1ccc2c3c(ccc2c1)CCCC3Nc1ncnc2cccnc12` (stereo not shown) [Compound 29, N-(1,2,3,4-Tetrahydrophenanthren-4-yl)pyrido[3,2-d]pyrimidin-4-amine] are 16.2% and 46%.
Turning to `CCCCCCc1cnc2c(NC3CCCc4ccccc43)ncnc2c1` (stereo not shown) [Compound 40, 7-Hexyl-N-(1,2,3,4-tetrahydronaphthalen-1-yl)pyrido[3,2-d]pyrimidin-4-amine], the inhibition at 0.1 µM came to 25.6% in assay [1] (100 nM) and 11.9% in assay [2] (100 nM). For the same compound, the inhibition at 10 µM in assay [1] (10 μM) turned out to be 88.1%; in assay [2] (10 μM), 82.2%.
`c1ccc2c(c1)CCCC2Nc1ncnc2cccnc12` (stereo not shown) [Compound 7, N-(1,2,3,4-Tetrahydronaphthalen-1-yl)pyrido[3,2-d]pyrimidin-4-amine]: the inhibition at 0.001 µM amounted to 35% in assay [1] and 42.2% in assay [2]. The compound further gave an inhibition at 0.01 µM in assay [1] of 89.3%. Also, the “% SK2 inhibition” value in assay [1] (100 nM) is recorded as 100 nM: 91.5 ± 1.6 (N = 9) %; in assay [1] (10 μM), 10 μM: 95.6 ± 1.2 (N = 9) %. For the same compound, the “% SK3 inhibition” value in assay [2] (10 nM) is reported as 10 nM: 56.1 ± 4.8 (N = 3) %; in assay [2] (100 nM), 100 nM: 81.3 ± 1.0 (N = 3) %; in assay [2] (10 μM), 10 μM: 83.4 ± 3.2 (N = 8) %.
Compound `Clc1cnc2c(NC3CCCc4ccccc43)ncnc2c1` (stereo not shown) [Compound 38, 7-Chloro-N-(1,2,3,4-tetrahydronaphthalen-1-yl)pyrido[3,2-d]pyrimidin-4-amine] returned an inhibition at 0.05 µM in assay [2] of 31.4%. The same compound yielded an inhibition at 0.1 µM in assay [2] (100 nM) of 51.9%. This compound yielded an inhibition at 10 µM in assay [2] (10 μM) of 74%.
`Fc1ccc2c(c1)CCCC2Nc1ncnc2cccnc12` (stereo not shown) [Compound 157, N-(6-Fluorotetralin-1-yl)pyrido[3,2-d]pyrimidin-4-amine]: in assay [2], the inhibition at 0.05 µM came to 32%. In assay [2] (100 nM), this compound gave an inhibition at 0.1 µM of 51.1%. In addition, the inhibition at 10 µM in assay [2] (10 μM) was 54%.

Values taken from patent US11932638B2, “Ion channel inhibitor compounds for cancer treatment” (Centre National de la Recherche Scientifique, priority 2017, dated 2024).
